For 31 compounds, LC50 and logP results are on record in ChEMBL document CHEMBL1146854, “Estimation of the hydrophobicity of 2,4-diphenyl-1,3-oxazoline analogs and QSAR analysis of their ovicidal activity against Tetranychus [corrected] urticae” (Bioorg Med Chem Lett, 2006).

Broadly, the LC50 is the concentration that kills 50% of the test population. A lower LC50 goes with a more lethal substance. As a reminder, the logP is a log measure of how a compound divides between an organic and an aqueous phase.

The structures appear in SMILES notation. In brackets after ≈: the same amount, converted by molar mass. Bounds are passed on as bounds.

One data set concerns Tetranychus urticae. Nature of the data set: Ovicidal activity against Tetranychus urticae. The data set is classed as functional.
A short description of data set [1]: Partition coefficient, log P of the compound. The class given is physicochemical. The following applies: octanol/water.

As for `Clc1ccc(C2=NC(c3ccccc3)CO2)cc1` (stereo unspecified), in the data set on Tetranychus urticae, the LC50 is 100 µg/mL (≈ 388 µM). In data set [1], this compound gave a logP of 4.48.

As to `Fc1cccc(Cl)c1C1=NC(c2ccccc2)CO1` (stereo unspecified), the LC50 in the data set on Tetranychus urticae was 0.01 µg/mL (≈ 0.0363 µM). This compound gave a logP in data set [1] of 3.45.

With `Cc1cccc(C2=NC(c3ccccc3)CO2)c1` (stereo unspecified), the LC50 with Tetranychus urticae was over 1000 µg/mL. The same compound showed a logP in data set [1] of 4.11.

Regarding `Fc1cccc(Cl)c1-c1ncco1`, the logP in data set [1] turned out to be 1.89.

In the data set on Tetranychus urticae, `Clc1cccc(C2=NC(c3ccccc3)CO2)c1Cl` (stereo unspecified) returned an LC50 of 10 µg/mL (≈ 34.2 µM). The logP in data set [1] stood at 4.28.

On to `CCSc1ccccc1C1=NC(c2ccccc2)CO1` (stereo unspecified), for which the LC50 in the data set on Tetranychus urticae stood at 100 µg/mL (≈ 353 µM). Besides, the logP in data set [1] worked out at 4.04.

In the case of `Fc1ccccc1C1=NC(c2ccccc2)CO1` (stereo unspecified), in the data set with Tetranychus urticae, the LC50 came to 10 µg/mL (≈ 41.4 µM). This compound also yielded a logP in data set [1] of 3.51.

`Ic1ccccc1-c1ncco1`: the logP in data set [1] is 2.3.

As for `COc1ccccc1C1=NC(c2ccccc2)CO1` (stereo unspecified), the LC50 in the data set on Tetranychus urticae came out at 10 µg/mL (≈ 39.5 µM). Also, the logP in data set [1] amounted to 3.76.

Compound `Cc1cccc(C)c1-c1ncco1` returned a logP in data set [1] of 2.21.

`Fc1cccc(F)c1-c1ncco1` yielded a logP in data set [1] of 1.45.

Compound `COc1ccc(C2=NC(c3ccccc3)CO2)cc1` (stereo unspecified) came in with an LC50 with Tetranychus urticae of 100 µg/mL (≈ 395 µM). In data set [1], this compound came in with a logP of 3.78.

For `Clc1cccc(C2=NC(c3ccccc3)CO2)c1` (stereo unspecified), in the data set with Tetranychus urticae, the LC50 was found to be 100 µg/mL (≈ 388 µM). The compound also returned a logP in data set [1] of 4.44.

Consider `Cc1ccccc1C1=NC(c2ccccc2)CO1` (stereo unspecified), for which, in the data set with Tetranychus urticae, the LC50 was 100 µg/mL (≈ 421 µM). For the same compound, the logP in data set [1] came out at 3.68.

Consider `Brc1ccccc1C1=NC(c2ccccc2)CO1` (stereo unspecified), for which, in the data set on Tetranychus urticae, the LC50 came out at 0.1 µg/mL (≈ 0.331 µM). In data set [1], this compound gave a logP of 3.69.

Consider `Ic1ccccc1C1=NC(c2ccccc2)CO1` (stereo unspecified), for which the median lethal concentration (LC50) with Tetranychus urticae was found to be 1 µg/mL (≈ 2.86 µM). In data set [1], this compound showed a logP of 3.86.

Regarding `Clc1ccccc1C1=NC(c2ccccc2)CO1` (stereo unspecified), in the data set on Tetranychus urticae, the LC50 was 1 µg/mL (≈ 3.88 µM). The logP in data set [1] turned out to be 3.56.

In the case of `Cc1ccc(C2=NC(c3ccccc3)CO2)cc1` (stereo unspecified), in the data set with Tetranychus urticae, the LC50 was over 1000 µg/mL. Also, in data set [1], the logP stood at 4.11.

The compound `CCOc1ccccc1C1=NC(c2ccccc2)CO1` (stereo unspecified) came in with an LC50 in the data set on Tetranychus urticae of over 1000 µg/mL. The logP in data set [1] amounted to 4.22.

The compound `c1ccc(C2=NC(c3ccccc3)CO2)cc1` (stereo unspecified) displayed an LC50 with Tetranychus urticae of 10 µg/mL (≈ 44.8 µM). Also, the logP in data set [1] came to 3.56.

`O=[N+]([O-])c1ccccc1-c1ncco1`: the logP in data set [1] came out at 1.27.

The compound `Clc1cccc(Cl)c1C1=NC(c2ccccc2)CO1` (stereo unspecified) returned an LC50 in the data set on Tetranychus urticae of 1 µg/mL (≈ 3.42 µM). The compound further gave a logP in data set [1] of 3.69.

For `FC(F)(F)c1ccccc1C1=NC(c2ccccc2)CO1` (stereo unspecified), in the data set with Tetranychus urticae, the LC50 stood at 100 µg/mL (≈ 343 µM). In data set [1], this compound gave a logP of 3.71.

For `Clc1ccc(C2=NC(c3ccccc3)CO2)c(Cl)c1` (stereo unspecified), in the data set on Tetranychus urticae, the LC50 stood at 10 µg/mL (≈ 34.2 µM). The logP in data set [1] is 4.4.

In data set [1], `FC(F)(F)c1ccccc1-c1ncco1` showed a logP of 2.15.

Turning to `Clc1ccc(Cl)c(C2=NC(c3ccccc3)CO2)c1` (stereo unspecified), the LC50 in the data set with Tetranychus urticae came out at 100 µg/mL (≈ 342 µM). Besides, in data set [1], the log partition coefficient (logP) amounted to 4.4.

`Fc1cccc(F)c1C1=NC(c2ccccc2)CO1` (stereo unspecified) yielded an LC50 with Tetranychus urticae of 1 µg/mL (≈ 3.86 µM). Moreover, in data set [1], the logP is 3.01.

Regarding `COc1cccc(C2=NC(c3ccccc3)CO2)c1` (stereo unspecified), the LC50 with Tetranychus urticae is over 1000 µg/mL. The compound further registered a logP in data set [1] of 3.77.

`c1ccc(Oc2ccccc2C2=NC(c3ccccc3)CO2)cc1` (stereo unspecified) registered an LC50 with Tetranychus urticae of 100 µg/mL (≈ 317 µM). The same compound came in with a logP in data set [1] of 5.61.

Compound `O=[N+]([O-])c1ccccc1C1=NC(c2ccccc2)CO1` (stereo unspecified) returned an LC50 with Tetranychus urticae of 100 µg/mL (≈ 373 µM). For the same compound, in data set [1], the logP worked out at 2.83.

Compound `CSc1ccccc1C1=NC(c2ccccc2)CO1` (stereo unspecified) gave an LC50 in the data set on Tetranychus urticae of 100 µg/mL (≈ 371 µM). Further, the logP in data set [1] was found to be 3.5.
